In this experiment the target is T1, human renal renin (Homo sapiens, UniProt P00797).
T1 construct: human renal renin, free from acid proteolytic activity; from tissue
T1 sequence (P00797 67-406): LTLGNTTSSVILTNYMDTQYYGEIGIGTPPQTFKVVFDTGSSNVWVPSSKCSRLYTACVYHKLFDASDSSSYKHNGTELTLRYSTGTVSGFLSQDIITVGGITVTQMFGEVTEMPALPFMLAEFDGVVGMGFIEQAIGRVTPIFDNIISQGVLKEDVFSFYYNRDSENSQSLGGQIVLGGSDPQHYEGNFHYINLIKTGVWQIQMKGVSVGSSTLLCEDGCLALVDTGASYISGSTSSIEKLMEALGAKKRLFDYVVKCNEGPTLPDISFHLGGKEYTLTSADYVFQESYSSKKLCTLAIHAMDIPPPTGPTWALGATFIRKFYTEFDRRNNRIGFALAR
The experiment is described as follows: Inhibition of human renal renin in vitro (angiotensin I formed measured by radioimmunoassay). It is filed as biochemical. The conditions noted are these: human renal renin free from acid proteolytic activity, renin substrate human angiotensinogen, 37 degrees C, pH 6.0; read-out: IC50 (molar concentration required to cause 50% inhibition). As for the experimental part: The compounds of the invention are also useful for treating congestive heart failure in a mammal. […] At the end of the incubation, the amount of angiotensin I formed is measured by radioimmunoassay and the molar concentration required to cause 50% inhibition, expressed as the IC50, is calculated.
`CC(C)C[C@H](O)[C@H](O)[C@H](CC1CCCCC1)NC(=O)[C@H](Cc1cscn1)NC(=O)[C@@H](CC(=O)CCCc1ccncc1)Cc1ccccc1` [Example 154, (2R)-2-Benzyl-3-[(2-pyridin-4-ylethyl)methylcarbonyl]propionyl-L-(4-thiazolyl)Ala Amide of (2S,3R,4S)-2-Amino-1-cyclohexyl-3,4-dihydroxy-6-methylheptane]: the IC50 worked out at 210 pM.
For the molecule `CC(C)C[C@H](O)[C@H](O)[C@H](CC1CCCCC1)NC(=O)[C@H](Cc1cc[nH]n1)NC(=O)[C@@H](CC(=O)N(C)CCN1CCOCC1)Cc1ccccc1` [Example 155, (2R)-2-Benzyl-3-[(2-morpholin-4-ylethyl)methylcarbonyl]propionyl-L-(3-pyrazolyl)Ala Amide of (2S,3R,4S)-2-Amino-1-cyclohexyl-3,4-dihydroxy-6-methylheptane], the IC50 worked out at 320 pM.
Under `CC(C)C[C@H](O)[C@H](O)[C@H](CC1CCCCC1)NC(=O)[C@H](Cn1cccn1)N(C)C(=O)C(Cc1ccccc1)NC(=O)N(C)CCc1ccccn1` (stereo partly drawn) [Example 156, [(2-pyridin-2-ylethyl)methylcarbonyl]phenylalanine-L-(N-α-methyl)-(1-pyrazolyl)alanine Amide of (2S,3R,4S)-2Amino-1-cyclohexyl-3,4-dihydroxy-6-methylheptane] stands 1300 pM.

Source of the values: patent US5063208A, “Peptidyl aminodiol renin inhibitors” (Abbott Laboratories, priority 1990, dated 1991).
